# Laboratory results taken from patent US8889370B2, “Method of determining inhibitors of coagulation” (Siemens Healthcare Diagnostics Products GmbH, priority 2010, dated 2014).
# Read-outs that look alike come from different tables or passages of the source.
# Target: T1, factor Xa (Homo sapiens, UniProt P00742)
# T1 construct: an F Xa reagent consisting of a lyophilized plasma fraction containing factor Xa; purchased Siemens Healthcare Diagnostics (Berichrom heparin assay, F Xa reagent); host or cells: plasma fraction
# Experiment: Determination of the F Xa binding constant (Ki) of peptide aldehyde ligands, chromogenic assay with Berichrom heparin assay reagents, Dixon plot
# Type: biochemical
# Method: The kinetic data of the peptide aldehyde ligands were determined in chromogenic assay formats by measuring the rate of hydrolysis of chromogenic peptide substrates which compete with the peptide aldehyde ligands for binding to the active site of the particular enzyme, at various substrate concentrations and peptide aldehyde-ligand concentrations. The binding constant (Ki) was determined by a known method (Dixon, M., 1953, Biochem J, 55, 170-171).
# The F Xa binding constant was determined using the reagents of the Berichrom® heparin assay from Siemens Healthcare Diagnostics. The Berichrom® heparin assay consists of: an F Xa reagent consisting of a lyophilized plasma fraction containing factor Xa, and additives such as Tris, NaCl, EDTA and preservatives, a chromogenic substrate reagent (Z-D-Leu-Gly-Arg-ANBA-methyl-amide), a dilution reagent for reconstitution, and a dextran sulfate reagent consisting of lyophilized dextran sulfate.
# After reconstitution in 10 ml of dilution reagent, the dextran sulfate concentration is 0.02 g/l. The F Xa reagent is reconstituted with the reconstituted dextran sulfate reagent. The substrate reagent, after constitution with 2 ml of deionized water, contains 4 mmol/l Z-D-Leu-Gly-Arg-ANBA-methyl-amide. Dilutions of the substrate reagent were prepared with deionized water. The peptide aldehyde ligands prepared according to example 1 were dissolved in water and used as sample. The assays were carried out automatically in a BCS® XP coagulation analyzer (Siemens Healthcare Diagnostics, Marburg, Germany).
# A reaction mix was mixed together as follows:
# 15 μl of sample (peptide aldehyde ligand B-r-G-R—H or B-f-P—R—H), […]
# 30 μl of substrate reagent (Z-D-Leu-Gly-Arg-ANBA-methyl-amide).
# The reaction rate in mE/min was determined on the basis of the increase in optical density of the reaction mix at a wavelength of 405 nm. For this, the optical density of the reaction mixes was determined in a time interval from 10 to 70 seconds.
# T1 sequence (P00742 235-488 limits assumed): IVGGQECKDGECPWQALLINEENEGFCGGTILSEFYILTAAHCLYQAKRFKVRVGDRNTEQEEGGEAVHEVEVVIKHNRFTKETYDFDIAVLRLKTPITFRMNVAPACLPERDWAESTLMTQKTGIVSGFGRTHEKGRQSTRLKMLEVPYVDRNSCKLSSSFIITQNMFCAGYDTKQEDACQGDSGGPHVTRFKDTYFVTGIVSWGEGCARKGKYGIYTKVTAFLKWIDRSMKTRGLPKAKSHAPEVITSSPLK
# T1 sequence (P00742 41-179 partner limits assumed): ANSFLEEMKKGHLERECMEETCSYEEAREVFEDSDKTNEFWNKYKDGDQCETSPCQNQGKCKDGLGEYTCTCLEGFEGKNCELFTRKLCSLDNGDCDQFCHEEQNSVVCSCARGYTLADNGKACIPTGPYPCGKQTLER
structure (smiles),measurement,setting,value
"N=C(N)NCCC[C@@H](C=O)NC(=O)[C@@H]1CCCN1C(=O)[C@@H](Cc1ccccc1)NC(=O)CCC(=O)NCCCOCCOCCOCCCNC(=O)CCCC[C@@H]1SC[C@@H]2NC(=O)N[C@@H]21 [B-f-P-R-H, biotinyl-Ttds-D-Phe-Pro-Arg-H]",1/Reaction rate,"CB-f-P-R-H 0.01019 μM, Csubstrate = 0.5 mM",5.617 min/E
same,1/Reaction rate,"CB-f-P-R-H 0.01019 μM, Csubstrate = 2 mM",1.457 min/E
same,1/Reaction rate,"CB-f-P-R-H 0.01019 μM, Csubstrate = 4 mM",0.8217 min/E
same,1/Reaction rate,"CB-f-P-R-H 0.02038 μM, Csubstrate = 0.5 mM",5.565 min/E
same,1/Reaction rate,"CB-f-P-R-H 0.02038 μM, Csubstrate = 2 mM",1.457 min/E
same,1/Reaction rate,"CB-f-P-R-H 0.02038 μM, Csubstrate = 4 mM",0.8192 min/E
same,1/Reaction rate,"CB-f-P-R-H 0.04076 μM, Csubstrate = 0.5 mM",5.569 min/E
same,1/Reaction rate,"CB-f-P-R-H 0.04076 μM, Csubstrate = 2 mM",1.454 min/E
same,1/Reaction rate,"CB-f-P-R-H 0.04076 μM, Csubstrate = 4 mM",0.8174 min/E
same,1/Reaction rate,"CB-f-P-R-H 0.08152 μM, Csubstrate = 0.5 mM",5.572 min/E
same,1/Reaction rate,"CB-f-P-R-H 0.08152 μM, Csubstrate = 2 mM",1.467 min/E
same,1/Reaction rate,"CB-f-P-R-H 0.08152 μM, Csubstrate = 4 mM",0.8218 min/E
same,1/Reaction rate,"CB-f-P-R-H 0.10190 μM, Csubstrate = 0.5 mM",5.619 min/E
same,1/Reaction rate,"CB-f-P-R-H 0.10190 μM, Csubstrate = 2 mM",1.463 min/E
same,1/Reaction rate,"CB-f-P-R-H 0.10190 μM, Csubstrate = 4 mM",0.8156 min/E
same,1/Reaction rate,"CB-f-P-R-H 0.16304 μM, Csubstrate = 0.5 mM",5.675 min/E
same,1/Reaction rate,"CB-f-P-R-H 0.16304 μM, Csubstrate = 2 mM",1.485 min/E
same,1/Reaction rate,"CB-f-P-R-H 0.16304 μM, Csubstrate = 4 mM",0.8333 min/E
same,1/Reaction rate,"CB-f-P-R-H 0.20380 μM, Csubstrate = 0.5 mM",5.619 min/E
same,1/Reaction rate,"CB-f-P-R-H 0.20380 μM, Csubstrate = 2 mM",1.473 min/E
same,1/Reaction rate,"CB-f-P-R-H 0.20380 μM, Csubstrate = 4 mM",0.8238 min/E
same,1/Reaction rate,"CB-f-P-R-H 0.32609 μM, Csubstrate = 0.5 mM",5.69 min/E
same,1/Reaction rate,"CB-f-P-R-H 0.32609 μM, Csubstrate = 2 mM",1.486 min/E
same,1/Reaction rate,"CB-f-P-R-H 0.32609 μM, Csubstrate = 4 mM",0.832 min/E
same,1/Reaction rate,"CB-f-P-R-H 0.40761 μM, Csubstrate = 0.5 mM",5.694 min/E
same,1/Reaction rate,"CB-f-P-R-H 0.40761 μM, Csubstrate = 2 mM",1.489 min/E
same,1/Reaction rate,"CB-f-P-R-H 0.40761 μM, Csubstrate = 4 mM",0.8338 min/E
same,1/Reaction rate,"CB-f-P-R-H 0.65217 μM, Csubstrate = 0.5 mM",5.785 min/E
same,1/Reaction rate,"CB-f-P-R-H 0.65217 μM, Csubstrate = 2 mM",1.51 min/E
same,1/Reaction rate,"CB-f-P-R-H 0.65217 μM, Csubstrate = 4 mM",0.8514 min/E
same,1/Reaction rate,"CB-f-P-R-H 0.81522 μM, Csubstrate = 0.5 mM",5.868 min/E
same,1/Reaction rate,"CB-f-P-R-H 0.81522 μM, Csubstrate = 2 mM",1.521 min/E
same,1/Reaction rate,"CB-f-P-R-H 0.81522 μM, Csubstrate = 4 mM",0.8494 min/E
same,1/Reaction rate,"CB-f-P-R-H 1.30435 μM, Csubstrate = 0.5 mM",5.959 min/E
same,1/Reaction rate,"CB-f-P-R-H 1.30435 μM, Csubstrate = 2 mM",1.562 min/E
same,1/Reaction rate,"CB-f-P-R-H 1.30435 μM, Csubstrate = 4 mM",0.8735 min/E
same,1/Reaction rate,"CB-f-P-R-H 1.63043 μM, Csubstrate = 0.5 mM",6.263 min/E
same,1/Reaction rate,"CB-f-P-R-H 1.63043 μM, Csubstrate = 2 mM",1.591 min/E
same,1/Reaction rate,"CB-f-P-R-H 1.63043 μM, Csubstrate = 4 mM",0.9021 min/E
same,1/Reaction rate,"CB-f-P-R-H 2.60870 μM, Csubstrate = 0.5 mM",6.441 min/E
same,1/Reaction rate,"CB-f-P-R-H 2.60870 μM, Csubstrate = 2 mM",1.672 min/E
same,1/Reaction rate,"CB-f-P-R-H 2.60870 μM, Csubstrate = 4 mM",0.9317 min/E
same,1/Reaction rate,"CB-f-P-R-H 3.26087 μM, Csubstrate = 0.5 mM",6.663 min/E
same,1/Reaction rate,"CB-f-P-R-H 3.26087 μM, Csubstrate = 2 mM",1.715 min/E
same,1/Reaction rate,"CB-f-P-R-H 3.26087 μM, Csubstrate = 4 mM",0.9448 min/E
same,1/Reaction rate,"CB-f-P-R-H 4.89130 μM, Csubstrate = 0.5 mM",7.084 min/E
same,1/Reaction rate,"CB-f-P-R-H 4.89130 μM, Csubstrate = 2 mM",1.84 min/E
same,1/Reaction rate,"CB-f-P-R-H 4.89130 μM, Csubstrate = 4 mM",1.026 min/E
same,1/Reaction rate,"CB-f-P-R-H 6.52174 μM, Csubstrate = 0.5 mM",7.613 min/E
same,1/Reaction rate,"CB-f-P-R-H 6.52174 μM, Csubstrate = 2 mM",1.979 min/E
same,1/Reaction rate,"CB-f-P-R-H 6.52174 μM, Csubstrate = 4 mM",1.106 min/E
same,1/Reaction rate,"CB-f-P-R-H 8.15217 μM, Csubstrate = 0.5 mM",8.377 min/E
same,1/Reaction rate,"CB-f-P-R-H 8.15217 μM, Csubstrate = 2 mM",2.149 min/E
same,1/Reaction rate,"CB-f-P-R-H 8.15217 μM, Csubstrate = 4 mM",1.173 min/E
same,1/Reaction rate,"CB-f-P-R-H 13.04348 μM, Csubstrate = 0.5 mM",9.739 min/E
same,1/Reaction rate,"CB-f-P-R-H 13.04348 μM, Csubstrate = 2 mM",2.499 min/E
same,1/Reaction rate,"CB-f-P-R-H 13.04348 μM, Csubstrate = 4 mM",1.359 min/E
same,Intersect of regression curve 1/reaction rate vs ligand concentration,Csubstrate 0.5 mM,5.5934 min/E
same,Slope of regression curve 1/reaction rate vs ligand concentration,Csubstrate 0.5 mM,0.3216 min/E μM
same,Intersect of regression curve 1/reaction rate vs ligand concentration,Csubstrate 2 mM,1.4588 min/E
same,Slope of regression curve 1/reaction rate vs ligand concentration,Csubstrate 2 mM,0.0806 min/E μM
same,Intersect of regression curve 1/reaction rate vs ligand concentration,Csubstrate 4 mM,0.8202 min/E
same,Slope of regression curve 1/reaction rate vs ligand concentration,Csubstrate 4 mM,0.0421 min/E μM
same,Ki,"average of three Ki values, read-out: KiM average F Xa binding constant",16.9 µM
same,Ki,"intersection of regression curves Csubstrate 2 and 0.5 mM, read-out: Ki2&3 F Xa binding constant",17.2 µM
same,Ki,"intersection of regression curves Csubstrate 4 and 0.5 mM, read-out: Ki1&3 F Xa binding constant",17.1 µM
same,Ki,"intersection of regression curves Csubstrate 4 and 2 mM, read-out: Ki1&2 F Xa binding constant",16.6 µM
same,binding of the peptide aldehyde with F Xa (reversible or irreversible),intersections of regression curves not on the x axis,reversible
